{
  "source": "paper PMC12491715",
  "about": "(Acta Pharmaceutica Sinica. B, 2025)",
  "key": {"[1]": {"experiment": "Shake-flask partition coefficient / logD", "assay_type": "physicochemical", "conditions": "n-octanol/PBS buffer", "experimental": "Shake-flask partition coefficient measurement was done according to OECD guideline 107 (27. 7. 1995) and EPA OPPTS 830.7550 guideline (1996). […] […] Each solvent ratio was done in duplicates. The Eppendorf tubes were thoroughly shaken to ensure partition and centrifuged (5000 × g, 10 min) to separate the phases. Water phase (carefully sampled using needle and syringe) was transferred to HPLC vials directly, whereas n-octanol phases were diluted with MeCN (10–50×) prior to analysis. Additional dilutions were carried out, if needed."}, "hBChE": {"target": "hBChE (Homo sapiens, UniProt P06276)", "sequence (P06276 29-602)": "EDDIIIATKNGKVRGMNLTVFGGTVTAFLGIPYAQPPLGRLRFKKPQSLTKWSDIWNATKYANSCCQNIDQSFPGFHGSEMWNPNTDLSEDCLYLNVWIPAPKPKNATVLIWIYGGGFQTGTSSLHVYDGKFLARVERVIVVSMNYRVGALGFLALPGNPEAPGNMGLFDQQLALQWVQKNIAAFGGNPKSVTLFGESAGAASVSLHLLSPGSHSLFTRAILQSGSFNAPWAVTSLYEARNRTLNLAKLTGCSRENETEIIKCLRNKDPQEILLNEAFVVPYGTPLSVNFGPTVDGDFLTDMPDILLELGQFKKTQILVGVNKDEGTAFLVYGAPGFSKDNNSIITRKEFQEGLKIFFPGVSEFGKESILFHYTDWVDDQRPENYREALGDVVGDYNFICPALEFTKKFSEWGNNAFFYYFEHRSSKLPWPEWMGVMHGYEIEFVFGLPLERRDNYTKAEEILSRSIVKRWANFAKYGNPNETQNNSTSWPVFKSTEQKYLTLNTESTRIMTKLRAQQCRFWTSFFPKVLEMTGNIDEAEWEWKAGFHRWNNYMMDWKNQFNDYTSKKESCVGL", "experiment": "hBChE binding kinetics: carbamoylation and decarbamoylation, initial velocity measurements", "assay_type": "biochemical", "experimental": "The progress curves for the time courses of product formation for the hydrolysis of butyrylthiocholine iodide were measured on an Agilent Cary 3500 UV–VIS spectrophotometer with Compact Peltier (thermostated at 25 °C) at 412 nm using a 0.6 mL cuvette (optical path–0.5 cm). 30 mmol/L Tris buffer pH 7.0 with 1 mg/mL BSA and 0.02% NaN3 was used and all dilutions were done in glass vessels (note: dilute hBChE solutions rapidly lose activity, presumably due to adsorption to plastic, preventing meaningful decarbamoylation assays. In our hands, under the above conditions only, the diluted and stock solutions of hBChE were stable for at least a month at room temperature.). Total volume in the cuvette was always 500 μL, and enzyme solutions that gave upon dilution v0 = (dA/dt) ≈ 0.5 (for carbamoylation) and ≈ 1 for (for decarbamoylation) were used. For carbamoylation experiments, 0.5–1 μL of enzyme stock, 5 μL of compound solution, and 484 μL of buffer were preincubated for the specified time, then 10 μL of the mixture of 25 mmol/L Ellman’s reagent (DTNB) and 20 mmol/L butyrylthiocholine (large excess to prevent substrate depletion) were added, quickly mixed, and measurement started. […] The data analysis followed the literature[63]^,[98]."}, "SH-SY5Y cells": {"tested_on": "SH-SY5Y cells", "experiment": "Neuroprotection assay against Aβ1–42, 7-AAD flow cytometry", "assay_type": "cell-based, human", "conditions": "5 μmol/L compound, 5 μmol/L fibrillar Aβ1–42, 48 h", "experimental": "Cell culture and treatments The human neuroblastoma SH-SY5Y cell line was purchased from American Type Culture Collection (Manassas, VA, USA). Cells were cultured in Advanced Dulbecco’s modified Eagle’s medium (Gibco, Thermo Fisher Scientific, Waltham, MA, USA) supplemented with 10% fetal bovine serum (FBS, Gibco), 2 mmol/L L-glutamine, 50 U/mL penicillin and 50 μg/mL streptomycin (Sigma, St. Louis, MO, USA) in a humidified atmosphere of 95% air and 5% CO2 at 37 °C, and grown to 80% confluence. Prior to cell treatment, complete medium was replaced with serum-reduced medium (i.e., with 2% FBS). Compounds were prepared as a stock solution of 50 mmol/L in DMSO.\nNeuroprotection assay The neuroprotective effect of compounds on cytotoxic effect of Aβ1–42 was determined with the fluorescent intercalator 7-aminoactinomycin D (7-AAD) assessed by flow cytometry. Prior to cell treatment, the peptide Aβ1–42 (Merck Millipore, Darmstadt, Germany) was dissolved in DMSO at a concentration of 1 mmol/L and was incubated at 100 μmol/L in 1 mol/L HCl at 37 °C for 24 h to induce Aβ aggregation. […] Cells were then analysed for cytotoxicity by flow cytometry on Attune NxT flow cytometer (Thermo Fisher Scientific). The percentage of 7AAD positive (7AADpos) cells was evaluated using FlowJo software (FlowJo, LLC., Ashland, OR, USA)."}, "Thermodynamic solubility": {"experiment": "Thermodynamic solubility", "assay_type": "physicochemical", "conditions": "thermodynamic from solid", "experimental": "The supernatants were diluted 1:5 with 50% MeCN or used directly for UPLC analysis (calibration curve was constructed from 0.5–100 mg/L standard solutions of compound 8)."}},
  "data": [
    {"smiles": "CCN(CC)C(=O)n1cnc(C2(CC)Cc3ccccc3C2)c1", "note": "[Compound 8, N,N-Diethyl-4-(2-ethylindan-2-yl)-1H-imidazole-1-carboxamide]", "values": [
      {"measurement": "logD", "setting": "[1]; pH 0.91", "value": "0.3 ± 0.06"},
      {"measurement": "logD", "setting": "[1]; pH 1.99", "value": "1.18 ± 0.1"},
      {"measurement": "logD", "setting": "[1]; pH 3.07", "value": "2.17 ± 0.25"},
      {"measurement": "logD", "setting": "[1]; pH 4.44", "value": "3.05 ± 0.1"},
      {"measurement": "logD", "setting": "[1]; pH 6.02", "value": "3.15 ± 0.14"},
      {"measurement": "logD", "setting": "[1]; pH 7.4", "value": "3.33 ± 0.11"},
      {"measurement": "logD", "setting": "[1]; pH 9.55", "value": "3.52 ± 0.39"},
      {"measurement": "Ki", "setting": "hBChE", "value": "2820 ± 200", "unit": "nM"},
      {"measurement": "kcarb, carbamoylation", "setting": "hBChE; 25 °C", "value": "3.7±1.7", "unit": "min^–1"},
      {"measurement": "ΔG25°C‡, carbamoylation", "setting": "hBChE; 25 °C", "value": "19.1 ± 0.3", "unit": "kcal/mol"},
      {"measurement": "reactivation period of the carbamoylated enzyme", "setting": "hBChE; Table 2", "value": "> 10", "unit": "days"},
      {"measurement": "prolongation of decarbamoylation phase", "setting": "hBChE; compared to 6", "value": "> 15", "unit": "fold"},
      {"measurement": "7-AAD-positive cells after Aβ1–42 treatment", "setting": "SH-SY5Y cells", "value": "significant reduction"},
      {"measurement": "solubility at 24 h", "setting": "Thermodynamic solubility; 1% Tween 20 in water, aqueous with cosolvent or surfactant or cyclodextrin, 1% Tween 20/water", "value": "615 ± 172", "unit": "µg/mL"},
      {"measurement": "solubility at 24 h", "setting": "Thermodynamic solubility; PBS, aqueous buffer", "value": "100 ± 20", "unit": "µg/mL"},
      {"measurement": "solubility at 24 h", "setting": "Thermodynamic solubility; pH 2 solution, pH 2, aqueous buffer", "value": "2420 ± 108", "unit": "µg/mL"},
      {"measurement": "solubility at 24 h", "setting": "Thermodynamic solubility; pH 4 solution, pH 4, aqueous buffer", "value": "166 ± 12", "unit": "µg/mL"},
      {"measurement": "solubility at 24 h", "setting": "Thermodynamic solubility; pH 6 solution, pH 6, aqueous buffer", "value": "136 ± 1", "unit": "µg/mL"},
      {"measurement": "solubility at 24 h", "setting": "Thermodynamic solubility; pH 10 solution, pH 10, aqueous buffer", "value": "103 ± 17", "unit": "µg/mL"},
      {"measurement": "solubility at 24 h", "setting": "Thermodynamic solubility; water", "value": "115 ± 26", "unit": "µg/mL"}
    ]}
  ]
}
